According to patent US20070232601A1, “Vla-4 Inhibitor” (priority 2004, published 2007):

Columns and labels:
[1] = Dispersibility test in Japanese Pharmacopoeia First and Second Solution; type: physicochemical; settings: for Dispersibility in Japanese Pharmacopoeia First Solution: JP1, pH 1.2; for Dispersibility in Japanese Pharmacopoeia Second Solution: JP2, pH 6.8
Procedure: Dispersibility of a test substance in Japanese Pharmacopoeia First Solution (JP1, pH 1.2) and Japanese Pharmacopoeia Second Solution (JP2, pH 6.8) was evaluated.

[2] = target: T1, hα4 and β1 integrins (VLA-4) (Homo sapiens, UniProt P05556+P13612); experiment: In vitro evaluation: inhibition of binding of CHO cells expressing hα4 and β1 integrins to Eu3+-hVCAM-1 D1D7-IgG; settings: ligand Eu3+-hVCAM-1 D1D7-IgG 2 nM, Ki calculated from IC50
T1 construct: expressed in transfected cells; host or cells: CHO cells
T1 sequence (P13612 34-1032): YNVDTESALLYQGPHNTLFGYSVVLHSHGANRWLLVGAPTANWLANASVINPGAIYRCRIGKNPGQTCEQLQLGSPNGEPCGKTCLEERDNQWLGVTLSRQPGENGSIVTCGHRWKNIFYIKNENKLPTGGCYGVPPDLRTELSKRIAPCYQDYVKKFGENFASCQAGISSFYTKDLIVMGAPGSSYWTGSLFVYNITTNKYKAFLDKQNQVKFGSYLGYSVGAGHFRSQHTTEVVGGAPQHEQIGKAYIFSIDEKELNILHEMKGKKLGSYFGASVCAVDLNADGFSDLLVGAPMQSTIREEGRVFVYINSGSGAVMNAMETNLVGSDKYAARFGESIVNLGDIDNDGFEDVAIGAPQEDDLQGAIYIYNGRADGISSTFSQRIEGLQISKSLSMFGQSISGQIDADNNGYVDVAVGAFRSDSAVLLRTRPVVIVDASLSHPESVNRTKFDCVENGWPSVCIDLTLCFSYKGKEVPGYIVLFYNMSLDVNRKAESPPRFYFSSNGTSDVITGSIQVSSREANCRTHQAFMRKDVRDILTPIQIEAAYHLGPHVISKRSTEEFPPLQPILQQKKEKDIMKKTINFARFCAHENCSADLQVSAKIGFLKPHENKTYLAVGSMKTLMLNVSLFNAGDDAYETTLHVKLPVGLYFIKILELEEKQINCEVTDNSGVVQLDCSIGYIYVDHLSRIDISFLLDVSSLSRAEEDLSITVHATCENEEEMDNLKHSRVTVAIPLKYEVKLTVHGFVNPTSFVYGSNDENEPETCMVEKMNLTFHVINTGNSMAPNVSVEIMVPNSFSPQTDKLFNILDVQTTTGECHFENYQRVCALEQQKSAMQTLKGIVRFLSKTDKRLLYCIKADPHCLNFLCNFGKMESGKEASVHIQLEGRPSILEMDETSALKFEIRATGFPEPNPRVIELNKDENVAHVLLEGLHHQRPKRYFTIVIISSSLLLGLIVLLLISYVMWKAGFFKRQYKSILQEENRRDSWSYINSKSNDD
T1 sequence (P05556 21-798): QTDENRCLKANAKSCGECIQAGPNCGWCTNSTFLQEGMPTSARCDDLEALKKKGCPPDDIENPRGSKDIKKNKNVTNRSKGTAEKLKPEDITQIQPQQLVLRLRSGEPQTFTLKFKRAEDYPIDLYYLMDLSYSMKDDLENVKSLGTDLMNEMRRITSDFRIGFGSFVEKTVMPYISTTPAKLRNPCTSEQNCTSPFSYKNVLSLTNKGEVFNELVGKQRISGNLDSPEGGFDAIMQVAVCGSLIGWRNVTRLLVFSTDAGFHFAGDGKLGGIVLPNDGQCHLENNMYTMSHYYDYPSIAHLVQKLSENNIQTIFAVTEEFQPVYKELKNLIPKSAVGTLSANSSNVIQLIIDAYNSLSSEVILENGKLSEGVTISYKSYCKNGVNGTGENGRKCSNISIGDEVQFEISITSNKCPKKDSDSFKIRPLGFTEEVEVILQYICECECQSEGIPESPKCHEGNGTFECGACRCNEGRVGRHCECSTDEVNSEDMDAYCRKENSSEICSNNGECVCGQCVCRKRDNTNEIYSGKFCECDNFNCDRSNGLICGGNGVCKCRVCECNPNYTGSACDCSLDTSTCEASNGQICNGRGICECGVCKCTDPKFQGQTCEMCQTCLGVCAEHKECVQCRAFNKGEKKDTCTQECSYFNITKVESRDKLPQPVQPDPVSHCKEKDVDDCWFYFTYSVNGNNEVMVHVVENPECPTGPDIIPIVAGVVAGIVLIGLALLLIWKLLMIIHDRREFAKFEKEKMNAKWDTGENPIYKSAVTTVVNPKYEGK
Method in brief: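 CHO cells stably expressing hα4β1 were cultured 2 days, then incubated 1 h at room temperature with Eu3+-hVCAM-1 D1D7-IgG (added as 2 nM solution) and compound in HEPES pH 7.5 with Ca2+, Mg2+ and 4 mM Mn2+, ± 6% human serum albumin. Bound europium was read by time-resolved fluorescence; IC50 was converted to Ki using Scatchard-derived Kd.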

Row | SMILES | Dispersibility in Japanese Pharmacopoeia First Solution [1] | Dispersibility in Japanese Pharmacopoeia Second Solution [1] | Ki [2]
1 | COc1ccccc1Nc1nc2ccc(CC(=O)N3C[C@@H](OC)C[C@H]3c3ncc(CCC(=O)O)s3)c(F)c2o1 [Example 10, 3-[2-[1-[[7-Fluoro-2-(2-methoxyphenylamino)-1,3-benzoxazol-6-yl]acetyl]-(4S)-methoxy-(2S)-pyrrolidinyl]-5-thiazolyl]propionic acid] | 1700 µg/mL | 2000 µg/mL | 0.56 nM
2 | CO[C@@H]1C[C@@H](c2ncc(CCC(=O)O)s2)N(C(=O)Cc2cc(Cl)c(NC(=O)c3csc4ccccc34)cc2F)C1 [Example 25, 3-[2-[1-[4-[(3-Benzo[b]thienylcarbonyl)amino]-5-chloro-2-fluorophenylacetyl]-(4R)-methoxy-(2S)-pyrrolidinyl]-5-thiazolyl]propionic acid] | 7 µg/mL | 330 µg/mL | 0.84 nM
3 | Cn1cc(C(=O)Nc2cc(Cl)c(CC(=O)N3CCC[C@H]3c3ncc(CCC(=O)O)s3)cc2Cl)c2ccccc21 [Example 26, 3-[2-[1-[2,5-Dichloro-4-(1-methyl-3-indolylcarbonylamino)phenylacetyl]-(2S)-pyrrolidinyl]-5-thiazolyl]propionic acid] | 4 µg/mL | 660 µg/mL | 2.5 nM
4 | O=C(O)CCc1cnc([C@@H]2C[C@H](Oc3cccnc3)CN2C(=O)Cc2cc(Cl)c(NC(=O)c3csc4ccccc34)cc2F)s1 [Example 45, 3-[2-[1-[4-[(3-Benzo[b]thienylcarbonyl)amino]-5-chloro-2-fluorophenylacetyl]-(4S)-(3-pyridyloxy)-(2S)-pyrrolidinyl]-5-thiazolyl]propionic acid] | 2000 µg/mL | 200 µg/mL | 1.6 nM
5 | O=C(O)CCc1cnc([C@@H]2C[C@H](N3CCCCC3)CN2C(=O)Cc2cc(Cl)c(NC(=O)c3csc4ccccc34)cc2F)s1 [Example 47, 3-[2-[1-[4-[(3-Benzo[b]thienylcarbonyl)amino]-5-chloro-2-fluorophenylacetyl]-(4S)-(1-piperidinyl)-(2S)-pyrrolidinyl]-5-thiazolyl]propionic acid] | >2000 µg/mL | 510 µg/mL | 0.93 nM
6 | COC1CN([C@H]2C[C@@H](c3ncc(CCC(=O)O)s3)N(C(=O)Cc3cc(Cl)c(NC(=O)c4cn(C)c5ccccc45)cc3F)C2)C1 [Example 63, 3-[2-[1-[5-Chloro-2-fluoro-4-(1-methyl-3-indolylcarbonylamino)phenylacetyl]-(4S)-[1-(3-methoxy)azetidinyl]-(2S)-pyrrolidinyl]-5-thiazolyl]propionic acid] | 1000 µg/mL | 1000 µg/mL | 0.89 nM
7 | COC1CN([C@H]2C[C@@H](c3ncc(CCC(=O)O)s3)N(C(=O)Cc3cc(Cl)c(NC(=O)c4cn(C)c5ccccc45)cc3Cl)C2)C1 [Example 64, 3-[2-[1-[2,5-Dichloro-4-(1-methyl-3-indolylcarbonylamino)phenylacetyl]-(4S)-[1-(3-methoxy)-azetidinyl]-(2S)-pyrrolidinyl]-5-thiazolyl]propionic acid] | 1000 µg/mL | 1000 µg/mL | 3.8 nM
8 | COC1CN([C@H]2C[C@@H](c3ncc(CCC(=O)O)s3)N(C(=O)Cc3cc(Cl)c(NC(=O)c4csc5ccccc45)cc3F)C2)C1 [Example 65, 3-[2-[1-[4-(3-Benzo[b]thiophenylcarbonylamino)-5-chloro-2-fluorophenylacetyl]-(4S)-[1-(3-methoxy)azetidinyl]-(2S)-pyrrolidinyl]-5-thiazolyl]propionic acid] | 1000 µg/mL | 1000 µg/mL | 0.93 nM
9 | COC1CN([C@H]2C[C@@H](c3ncc(CCC(=O)O)s3)N(C(=O)Cc3cc(Cl)c(NC(=O)c4csc5ccccc45)cc3Cl)C2)C1 [Example 66] | 1000 µg/mL | 1000 µg/mL | 0.84 nM
10 | COC1CN([C@H]2C[C@@H](c3ncc(CCC(=O)O)s3)N(C(=O)Cc3cc(Cl)c(NC(=O)c4coc5ccccc45)cc3F)C2)C1 [Example 67, 3-[2-[1-[4-(3-Benzo[b]furanylcarbonylamino)-5-chloro-2-fluorophenylacetyl]-(4S)-[1-(3-methoxy)azetidinyl]-(2S)-pyrrolidinyl]-5-thiazolyl]propionic acid] | 1000 µg/mL | 1000 µg/mL | 1.2 nM
11 | COC1CN([C@H]2C[C@@H](c3ncc(CCC(=O)O)s3)N(C(=O)Cc3cc(Cl)c(NC(=O)c4coc5ccccc45)cc3Cl)C2)C1 [Example 68, 3-[2-[[1-4-(3-Benzo[b]furanylcarbonylamino)-2,5-dichlorophenylacetyl]-(4S)-[1-(3-methoxy)azetidinyl]-(2S)-pyrrolidinyl]-5-thiazolyl]propionic acid] | 1000 µg/mL | 1000 µg/mL | 0.73 nM
12 | CCOC1CN([C@H]2C[C@@H](c3ncc(CCC(=O)O)s3)N(C(=O)Cc3cc(Cl)c(NC(=O)c4cn(C)c5ccccc45)cc3F)C2)C1 [Example 69, 3-[2-[1-[5-Chloro-2-fluoro-4-(1-methyl-3-indolylcarbonylamino)phenylacetyl]-(4S)-[1-(3-ethoxy)azeditinyl]-(2S)-pyrroldinyl]-5-thiazolyl]propionic acid] | 940 µg/mL | 940 µg/mL | 0.71 nM
13 | CCOC1CN([C@H]2C[C@@H](c3ncc(CCC(=O)O)s3)N(C(=O)Cc3cc(Cl)c(NC(=O)c4cn(C)c5ccccc45)cc3Cl)C2)C1 [Example 70, 3-[2-[1-[2,5-Dichloro-4-(1-methyl-3-indolylcarbonylamino)phenylacetyl]-(4S)-[1-(3-ethoxy)azetidinyl]-(2S)-pyrrolidinyl]-5-thiazolyl]propionic acid] | 960 µg/mL | 960 µg/mL | 2.3 nM
14 | CCOC1CN([C@H]2C[C@@H](c3ncc(CCC(=O)O)s3)N(C(=O)Cc3cc(Cl)c(NC(=O)c4csc5ccccc45)cc3F)C2)C1 [Example 71, 3-[2-[1-[4-(3-Benzo[b]thiophenylcarbonylamino)-5-chloro-2-fluorophenylacetyl]-(4S)-1-(3-ethoxy)azetidinyl-(2S)-pyrrolidinyl]-5-thiazolyl]propionic acid] | 940 µg/mL | 940 µg/mL | 0.5 nM
15 | CCOC1CN([C@H]2C[C@@H](c3ncc(CCC(=O)O)s3)N(C(=O)Cc3cc(Cl)c(NC(=O)c4csc5ccccc45)cc3Cl)C2)C1 [Example 72, 3-[2-[1-[4-(3-Benzo[b]thiophenylcarbonylamino)-2,5-dichlorophenylacetyl]-(4S)-1-(3-ethoxy)azetidinyl-(2S)-pyrrolidinyl]-5-thiazolyl]propionic acid] | 960 µg/mL | 960 µg/mL | 0.68 nM
16 | Cn1cc(C(=O)Nc2cc(F)c(CC(=O)N3C[C@@H](N4CCC(F)(F)CC4)C[C@H]3c3ncc(CCC(=O)O)s3)cc2Cl)c2ccccc21 [Example 73, 3-[2-[1-[5-Chloro-2-fluoro-4-(1-methyl-3-indolylcarbonylamino)phenylacetyl]-(4S)-[1-(4,4-difluoro)piperidinyl]-(2S)-pyrrolidinyl]-5-thiazolyl]propionic acid] | 230 µg/mL | 290 µg/mL | 1.1 nM
17 | CON(C)[C@H]1C[C@@H](c2ncc(CCC(=O)O)s2)N(C(=O)Cc2cc(Cl)c(NC(=O)c3csc4ccccc34)cc2Cl)C1 [Example 130, 3-[2-[1-[4-(3-Benzo[b]thiophenylcarbonylamino)-2,5-dichlorophenylacetyl]-(4S)—N,O-dimethylhydroxylamino-(2S)-pyrrolidinyl]-5-thiazolyl]propionic acid] | – | – | 3.5 nM
18 | CON(C)[C@H]1C[C@@H](c2ncc(CCC(=O)O)s2)N(C(=O)Cc2cc(Cl)c(NC(=O)c3coc4ccccc34)cc2F)C1 [Example 131, 3-[2-[1-[4-(3-Benzo[b]furanylcarbonylamino)-5-chloro-2-fluorophenylacetyl]-(4S)—N,O-dimethylhydroxylamino-(2S)-pyrrolidinyl]-5-thiazolyl]propionic acid] | – | – | 5.9 nM
19 | CON(C)[C@H]1C[C@@H](c2ncc(CCC(=O)O)s2)N(C(=O)Cc2cc(Cl)c(NC(=O)c3coc4ccccc34)cc2Cl)C1 [Example 132, 3-[2-[1-[-(3-Benzo[b]furanylcarbonylamino)-2,5-dichlorophenylacetyl]-(4S)—N,O-dimethylhydroxylamino-(2S)-pyrrolidinyl]-5-thiazolyl]propionic acid] | – | – | 13 nM
20 | COC[C@@]1(c2ncc(CCC(=O)O)s2)C[C@H](OC)CN1C(=O)Cc1cc(Cl)c(NC(=O)c2cn(C)c3ccccc23)cc1Cl [Example 133, 3-{2-[(2R,4S)-1-[2-(2,5-dichloro-4-{[(1-methyl-1H-indol-3-yl)carbonyl]amino}phenyl)acetyl]-4-methoxy-2-(methoxymethyl)pyrrolidinyl]thiazol-5-yl}propionic acid] | – | – | 4.5 nM
